Tests used:
Palbociclib = compound: CC(=O)c1c(C)c2cnc(Nc3ccc(N4CCNCC4)cn3)nc2n(C2CCCC2)c1=O [Palbociclib]; details: max 10 µM
Outline: (§1)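 Cancer cell lines were seeded in 1536-well plates in 7.5 μl DMEM/F12 or RPMI with 10% FBS, held 24 hours at 37°C and 5% CO2, then dosed for 72 hours (final DMSO typically 0.2%). Viability was read by CellTiter-Glo 2.0 luminescence and scaled between blank-well and DMSO-well means. The single-agent IC50 comes from dose responses fitted to a two-parameter logistic curve with a non-linear mixed effects model.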

AZD1775 = compound: C=CCn1c(=O)c2cnc(Nc3ccc(N4CCN(C)CC4)cc3)nc2n1-c1cccc(C(C)(C)O)n1 [AZD1775]; details: max 3 µM
Outline: as §1

Savolitinib = compound: C[C@@H](c1ccc2nccn2c1)n1nnc2ncc(-c3cnn(C)c3)nc21 [Savolitinib]; details: max 1 µM
Outline: as §1

Etoposide = compound: COc1cc([C@@H]2c3cc4c(cc3[C@@H](O[C@@H]3O[C@@H]5CO[C@@H](C)O[C@H]5[C@H](O)[C@H]3O)[C@H]3COC(=O)[C@H]23)OCO4)cc(OC)c1O [Etoposide]; details: max 10 µM
Outline: as §1

[1] = compound: O=C(Nc1ccc2[nH]nc(-c3ccncc3)c2c1)[C@@H]1CCN(CC(=O)N2CCN(c3ccc(-c4ncccn4)cc3)CC2)C1; details: max 5 µM
Outline: as §1

AZD0156 = compound: CN(C)CCCOc1ccc(-c2ccc3ncc4c(c3c2)n(C2CCOCC2)c(=O)n4C)cn1 [AZD0156]; details: max 3 µM
Outline: as §1

Prexasertib = compound: COc1cccc(OCCCN)c1-c1cc(Nc2cnc(C#N)cn2)n[nH]1 [Prexasertib]; details: max 1 µM
Outline: as §1

Trametinib = compound: CC(=O)Nc1cccc(-n2c(=O)n(C3CC3)c(=O)c3c(Nc4ccc(I)cc4F)n(C)c(=O)c(C)c32)c1 [Trametinib]; details: max 1 µM
Outline: as §1

Doxorubicin = compound: COc1cccc2c1C(=O)c1c(O)c3c(c(O)c1C2=O)C[C@@](O)(C(=O)CO)C[C@@H]3O[C@H]1C[C@H](N)[C@H](O)[C@H](C)O1 [Doxorubicin]; details: max 1 µM
Outline: as §1

Lapatinib = compound: CS(=O)(=O)CCNCc1ccc(-c2ccc3ncnc(Nc4ccc(OCc5cccc(F)c5)c(Cl)c4)c3c2)o1 [Lapatinib]; details: max 10 µM
Outline: as §1

AZD5991 = compound: Cc1c2c(nn1C)CSCc1cc(n(C)n1)CSc1cc(c3ccccc3c1)OCCCc1c(C(=O)O)n(C)c3c-2c(Cl)ccc13 [AZD5991]; details: max 1 µM
Outline: as §1

SRA737 = compound: N#Cc1cnc(Nc2cc(NC[C@H]3CNCCO3)c(C(F)(F)F)cn2)cn1 [SRA737]; details: max 10 µM
Outline: as §1

Dasatinib = compound: CC1=C(C(=CC=C1)Cl)NC(=O)C2=CN=C(S2)NC3=CC(=NC(=N3)C)N4CCN(CC4)CCO [Dasatinib]; details: max 2 µM
Outline: as §1

Selumetinib = compound: Cn1cnc2c(F)c(Nc3ccc(Br)cc3Cl)c(C(=O)NOCCO)cc21 [Selumetinib]; details: max 10 µM
Outline: as §1

Crizotinib = compound: C[C@@H](Oc1cc(-c2cnn(C3CCNCC3)c2)cnc1N)c1c(Cl)ccc(F)c1Cl [Crizotinib]; details: max 10 µM
Outline: as §1

AZD7648 = compound: Cc1cc2ncnn2cc1Nc1ncc2c(n1)n(C1CCOCC1)c(=O)n2C [AZD7648]; details: max 10 µM
Outline: as §1

Taselisib = compound: Cc1nc(-c2cn3c(n2)-c2ccc(-c4cnn(C(C)(C)C(N)=O)c4)cc2OCC3)n(C(C)C)n1 [Taselisib]; details: max 10 µM
Outline: as §1

Gemcitabine = compound: Nc1ccn([C@@H]2O[C@H](CO)[C@@H](O)C2(F)F)c(=O)n1 [Gemcitabine]; details: max 0.3 µM
Outline: as §1

Alisertib = compound: COc1cc(Nc2ncc3c(n2)-c2ccc(Cl)cc2C(c2c(F)cccc2OC)=NC3)ccc1C(=O)O [Alisertib]; details: max 10 µM
Outline: as §1

AZD1390 = compound: CC(C)n1c(=O)n(C)c2cnc3cc(F)c(-c4ccc(OCCCN5CCCCC5)nc4)cc3c21 [AZD1390]; details: max 0.3 µM
Outline: as §1

AZD8186 = compound: C[C@@H](Nc1cc(F)cc(F)c1)c1cc(C(=O)N(C)C)cc2c(=O)cc(N3CCOCC3)oc12 [AZD8186]; details: max 10 µM
Outline: as §1

Carboplatin = compound: C1CC(C1)(C(=O)[O-])C(=O)[O-].N.N.[Pt+2] [Carboplatin]; details: max 10 µM
Outline: as §1

Gefitinib = compound: COc1cc2ncnc(Nc3ccc(F)c(Cl)c3)c2cc1OCCCN1CCOCC1 [Gefitinib]; details: max 10 µM
Outline: as §1

AZD4320 = compound: CN(CC[C@H](CSC1=CC=CC=C1)NC2=C(C=C(C=C2)S(=O)(=O)NC(=O)C3=CC=C(C=C3)N4CCC(CC4)[C@H](C5=CC=CC=C5C6=CC=C(C=C6)Cl)O)S(=O)(=O)C(F)(F)F)CCO [AZD4320]; details: max 1 µM
Outline: as §1

5-Fluorouracil = compound: O=c1[nH]cc(F)c(=O)[nH]1 [5-Fluorouracil]; details: max 20 µM
Outline: as §1

Venetoclax = compound: CC1(C)CCC(CN2CCN(c3ccc(C(=O)NS(=O)(=O)c4ccc(NCC5CCOCC5)c([N+](=O)[O-])c4)c(Oc4cnc5[nH]ccc5c4)c3)CC2)=C(c2ccc(Cl)cc2)C1 [Venetoclax]; details: max 1 µM
Outline: as §1

MK-2206 = compound: NC1(c2ccc(-c3nc4ccn5c(=O)[nH]nc5c4cc3-c3ccccc3)cc2)CCC1 [MK-2206]; details: max 10 µM
Outline: as §1

AZD6738 = compound: C[C@@H]1COCCN1C2=NC(=NC(=C2)C3(CC3)[S@](=N)(=O)C)C4=C5C=CNC5=NC=C4 [AZD6738]; details: max 10 µM
Outline: as §1

AZD2811 = compound: CCN(CCO)CCCOc1ccc2c(Nc3cc(CC(=O)Nc4cccc(F)c4)[nH]n3)ncnc2c1 [AZD2811]; details: max 1 µM
Outline: as §1

Paclitaxel = compound: CC(=O)O[C@H]1C(=O)[C@@]2(C)[C@H]([C@H](OC(=O)c3ccccc3)[C@]3(O)C[C@H](OC(=O)[C@H](O)[C@@H](NC(=O)c4ccccc4)c4ccccc4)C(C)=C1C3(C)C)[C@]1(OC(C)=O)CO[C@@H]1C[C@@H]2O [Paclitaxel]; details: max 3 µM
Outline: as §1

AZD5363 = compound: C1CN(CCC1(C(=O)N[C@@H](CCO)C2=CC=C(C=C2)Cl)N)C3=NC=NC4=C3C=CN4 [AZD5363]; details: max 10 µM
Outline: as §1

AZD5153 = compound: COc1nnc2ccc(N3CCC(c4ccc(OCCN5CCN(C)C(=O)[C@H]5C)cc4)CC3)nn12 [AZD5153]; details: max 1 µM
Outline: as §1

Olaparib = compound: O=C(c1cc(Cc2n[nH]c(=O)c3ccccc23)ccc1F)N1CCN(C(=O)C2CC2)CC1 [Olaparib]; details: max 10 µM
Outline: as §1

SG3199 = compound: CC1=CN2[C@@H](C1)C=NC3=CC(=C(C=C3C2=O)OC)OCCCCCOC4=C(C=C5C(=C4)N=C[C@@H]6CC(=CN6C5=O)C)OC [SG3199]; details: max 0.001 µM
Outline: as §1

SN-38 = compound: CCc1c2c(nc3ccc(O)cc13)-c1cc3c(c(=O)n1C2)COC(=O)[C@]3(O)CC [SN-38]; details: max 0.3 µM
Outline: as §1

Cell Line	IC50, cell viability 72 h (Palbociclib)	IC50, cell viability 72 h (AZD1775)	IC50, cell viability 72 h (Savolitinib)	IC50, cell viability 72 h (Etoposide)	IC50, cell viability 72 h [1]	IC50, cell viability 72 h (AZD0156)	IC50, cell viability 72 h (Prexasertib)	IC50, cell viability 72 h (Trametinib)	IC50, cell viability 72 h (Doxorubicin)	IC50, cell viability 72 h (Lapatinib)	IC50, cell viability 72 h (AZD5991)	IC50, cell viability 72 h (SRA737)	IC50, cell viability 72 h (Dasatinib)	IC50, cell viability 72 h (Selumetinib)	IC50, cell viability 72 h (Crizotinib)	IC50, cell viability 72 h (AZD7648)	IC50, cell viability 72 h (Taselisib)	IC50, cell viability 72 h (Gemcitabine)	IC50, cell viability 72 h (Alisertib)	IC50, cell viability 72 h (AZD1390)	IC50, cell viability 72 h (AZD8186)	IC50, cell viability 72 h (Carboplatin)	IC50, cell viability 72 h (Gefitinib)	IC50, cell viability 72 h (AZD4320)	IC50, cell viability 72 h (5-Fluorouracil)	IC50, cell viability 72 h (Venetoclax)	IC50, cell viability 72 h (MK-2206)	IC50, cell viability 72 h (AZD6738)	IC50, cell viability 72 h (AZD2811)	IC50, cell viability 72 h (Paclitaxel)	IC50, cell viability 72 h (AZD5363)	IC50, cell viability 72 h (AZD5153)	IC50, cell viability 72 h (Olaparib)	IC50, cell viability 72 h (SG3199)	IC50, cell viability 72 h (SN-38)
JHU-022 (Oral Cavity Carcinoma)	> 10000 nM	1640 nM	> 1000 nM	> 10000 nM	2720 nM	> 3000 nM	94.4 nM	219 nM	505 nM	1930 nM	> 1000 nM	> 10000 nM	431 nM	5560 nM	> 10000 nM	> 10000 nM	515 nM	278 nM	> 10000 nM	> 300 nM	> 10000 nM	> 10000 nM	811 nM	> 1000 nM	> 20000 nM	> 1000 nM	> 10000 nM	> 10000 nM	> 1000 nM	2090 nM	> 10000 nM	> 1000 nM	> 10000 nM	> 1 nM	35.7 nM
KYSE-220 (Esophageal Squamous Cell Carcinoma)	> 10000 nM	355 nM	> 1000 nM	2520 nM	> 5000 nM	> 3000 nM	16.3 nM	287 nM	94.3 nM	4250 nM	> 1000 nM	> 10000 nM	> 2000 nM	9200 nM	5480 nM	> 10000 nM	1220 nM	33 nM	9200 nM	> 300 nM	> 10000 nM	> 10000 nM	> 10000 nM	> 1000 nM	> 20000 nM	> 1000 nM	> 10000 nM	1190 nM	> 1000 nM	42.4 nM	> 10000 nM	358 nM	> 10000 nM	> 1 nM	17.5 nM

Source: the supplement of paper PMC11061612
